Results taken from patent US20240410831A1, “Multi-Mode Zinc-Selective Emission-Ratiometric Fluorescent Probes for Biological Application” (Georgia Tech Research Corporation, priority 2023, published 2024).

How the values were obtained:
[1] = Molar ratio titration with Zn(OTf)2 in methanol (absorption and fluorescence); type: physicochemical; conditions: for fluorescence emission maximum: excitation at 395 nm
Description: To prevent solution aggregation of the charge-neutral compounds exemplified by Formula I, Formula II, and/or a derivative thereof (e.g., for example probe 8) in PIPES buffer, the initial solution characterization was conducted in analytical grade MeOH. […] Consistent with an increased ground- and excited state polarization upon Zn(II) complexation, the absorption maximum is red-shifted by 34 nm from 376 nm to 410 nm. Sharp isosbestic points at 306 nm and 395 nm, as well as saturation at an equimolar Zn(II) concentration are indicative of a well-defined solution equilibrium involving only the free probe 8 and a discrete Zn(II)-complex with 1:1 metal-ligand stoichiometry.
Similarly, the fluorescence emission maximum of Formula I, Formula II, and/or a derivative thereof (e.g., for example probe 8) is red-shifted from 460 nm to 513 nm upon Zn(II)-binding. […] To provide a direct comparison with previous probes, probe 8 was also analyzed in aqueous buffer containing DMPC/DMPG liposomes that mimic the lipid bilayers present in cells.
A solution of Formula I, Formula II, and/or a derivative thereof (e.g., for example probe 8) (10 μM) in analytical grade MeOH prepared in a quartz cuvette with a 1-cm pathlength was titrated with Zn(OTf)2 (from a 0.3 mM aqueous stock solution) in 1.0 μM (0.1 molar equiv.) increments. After each aliquot of Zn(II), the solution was equilibrated for 1 minute by magnetic stirring, and an absorbance (spectral window: 250-500 nm) and fluorescence spectrum (excitation at 395 nm, spectral window 405-705 nm) were acquired. In another embodiment, a solution of Formula I, Formula II, and/or a derivative thereof (e.g., for example probe 8 in FIG. 4H) (10 PM) in Chelex®-PIPES buffer (10 mM, 0.1 M KCl, pH 7.0, 25° C.) containing 100 μM of liposomes (4:1 mixture of DMPC and DMPG) prepared in a quartz cuvette with a 1-cm pathlength was titrated with Zn(OTf)2 (from a 0.3 mM aqueous stock solution) in 1.0 μM (0.1 molar equiv.) increments. After each aliquot of Zn(II), the solution was equilibrated for 1 minute by magnetic stirring, and a fluorescence spectrum (excitation: 405 nm, spectral window 420-700 nm) was acquired.

[2] = Fluorescence quantum yield measurement; type: physicochemical; conditions: liposome solution, pH 7.0 PIPES
Description: The quantum yields of the free Formula I, Formula II, and/or a derivative thereof (e.g., for example probe 8) was determined using quinine sulfate as a reference (Df=0.546 in 1.0 N H2SO4). The quantum yield was derived from a 5-point measurement in Chelex®-treated PIPES buffer containing 100 μM of 4:1 DMPC:DMPG liposomes (pH 7.0, 10 mM PIPES, 0.1 M KCl, 25° C.). For the free compound 1 (e.g., for example probe 8 in FIG. 4H), the solutions were supplemented with 20 μM of EDTA (from a 3.0 mM stock solution in DI H2O). The quantum yield of the probe 8-Zn(II) complex was independently determined under the same conditions in the presence of 1.1 molar equivalent of Zn(OTf)2. The quantum yield of the Zn(II) complex was confirmed with fluorescence quantum yield ratio. The fluorescence quantum yields were calculated as an average of two independent measurements.

[3] = tested on: live mouse fibroblast 3T3 cells; experiment: Ratiometric imaging of labile Zn(II) by TPEM (excitation at 750 nm); type: cell-based
Description: With reference to FIG. 7A, emission-ratiometric imaging of labile Zn(II) pools in live mouse fibroblast 3T3 cells with Formula I, Formula II, and/or a derivative thereof (e.g., for example probe 8) by TPEM (excitation at 750 nm). (A) of FIG. 7A Left: The emission was collected with 520 nm-600 nm (BP2) and 440 nm-495 nm (BP1) bandpass filters respectively. Right: Intensity ratio images with R=BP2/BP1. (B) of FIG. 7A Left: Ratio images (BP2/BP1) before (prior to t=5 min) and after the addition of 50 μM ZnSO4 and 5.0 μM pyrithione. Addition of TPEN at t=15 min resulted the reversal of the initial of fluorescence ratio change. (C) of FIG. 7A Mean fluorescence ratio of the cytoplasmic region averaged over 10 cells (P values calculated for n=10 using a two-tailed test). (D) of FIG. 7A Time course of the average ratio change for the mean fluorescence ratio in the cytosol averaged over 10 cells.
To evaluate the Zn(II)-dependent ratiometric response of Formula I and/or Formula IA (e.g., for example probe 8) in live cells, imaging experiments were performed with live mouse fibroblasts (3T3) as model cell line.
In various embodiments, mouse fibroblast (3T3) cells were grown on poly-L-lysine treated glass bottom culture dishes (MatTek) to 90% confluency in DMEM growth media supplemented with 10% bovine calf serum, and 1% penicillin-streptomycin. Before imaging, the media was replaced with pre-warmed colorless serum-free DMEM (1% penicillin-streptomycin, and 1% sodium pyruvate) containing 1.0 μM of probe 8. The cells were incubated at 37° C. under an atmosphere of humidified air containing 5% CO2 for 15 mins. The incubation solution was replaced with prewarmed colorless serum free DMEM. Images were acquired at 37° C., 8% humidity, and 5% CO2 using a Zeiss LSM NLO 710 microscope equipped with a femtosecond pulsed Ti:sapphire laser and a blue 405 nm laser. Scanning fluorescence micrographs were acquired with excitation at 405 nm or 750 nm and the emission was simultaneously collected with bandpass ranges of 495-440 nm (BP1) and 600-520 nm (BP2). Image J was used to evaluate the change in fluorescence emission ratio over time as previously described. The emission ratio for each region of interest was averaged at each time point.
TPEN solid was fully dissolved in anhydrous DMSO to a concentration of 3.0 mM. The stock solution was further diluted to 1.0 mM in pre-warmed phenol-red-free DMEM media before each imaging experiments. The ZnSO4 stock solution was prepared in DI H2O and the pyrithione stock solution was prepared in anhydrous DMSO to a concentration of 3.0 mM. The stock solution of Zn(II)/pyrithione was prepared and diluted with phenol red free DMEM. To determine the limiting emission intensity ratios Rmin and Rmax, mouse fibroblast cells were supplemented with Zn(II)-pyrithione (50 μM ZnSO4 and 5.0 μM pyrithione), and then TPEN (100 μM).

Q: Which “red shift of absorption maximum upon Zn(II) complexation” value [1] does the source give for `COc1ccc2c(c1)C(C)(C)c1nc(-c3cccc(CN(Cc4ncccn4)Cc4ncccn4)n3)sc1-2` [probe 8] here?
A: 34 nm

Q: What about the absorption maximum ([1]; Zn(II) complex) of the same molecule?
A: 410 nm

Q: What about the fluorescence emission maximum ([1]; Zn(II)-bound) of the same molecule?
A: 513 nm

Q: What about the absorption maximum ([1]; free probe, 10 μM) of the same molecule?
A: 376 nm

Q: What about the fluorescence emission maximum ([1]; free probe) of the same molecule?
A: 460 nm

Q: What about the quantum yield ([2]; Zn(II)-probe complex) of the same molecule?
A: 78%

Q: What about the quantum yield ([2]; free probe) of the same molecule?
A: 72%

Q: What about the cellular uptake ([3]; 3T3 cells, TPEM) of the same molecule?
A: readily internalized

Q: And the “average fluorescence ratio R (BP2/BP1)” value ([3]; after 50 μM ZnSO4 and 5.0 μM pyrithione, TPEM 750 nm)?
A: 1.35±0.16

Q: What about the “average fluorescence ratio R (BP2/BP1)” value ([3]; after TPEN, TPEM 750 nm) of the same molecule?
A: 0.59±0.05

Q: What about the “increase of fluorescence ratio” value ([3]; after Zn(II)/pyrithione against basal, TPEM 750 nm) of the same molecule?
A: more than 2 fold

Q: What about the “average fluorescence ratio R (BP2/BP1)” value ([3]; basal, 1.0 μM probe, TPEM 750 nm) of the same molecule?
A: 0.59±0.06
